Assay results taken from patent publication US8518968B2, “Hydrazone and diacyl hydrazine compounds and methods of use” (The United States of America, as represented by the …, priority 2009, dated 2013).
Structures can show the parent of a compound that is named as a salt.

system: JEKO-1 cells stably transfected with shRNAs to luciferase or NOXA; assay: Effect of NOXA shRNA on cytotoxicity in JEKO-1 cells (MTT); format: cell-based; conditions: JEKO-1 shLuc vs shNoxa, 24 hours
Method: The effect of NOXA on cytotoxicity of CBU-028, EERI, or bortezomib is determined. FIG. 4 presents graphs comparing CBU-028, EERI, and bortezomib with respect to percent cell viability as a function of concentration, measured using JEKO-1 cells stably transfected with shRNAs to luciferase (shLuc, control, ▪) or NOXA (shNoxa, ◯, sequence: [NT]) after treatment with the compound for 24 hrs, with viability determined with MTT as described above and normalized to the untreated control.

SMILES | requirement of NOXA for cytotoxicity
CC(C)C[C@H](NC(=O)[C@H](Cc1ccccc1)NC(=O)c1cnccn1)B(O)O [bortezomib] | Noxa is equally required

system: JEKO-1 cells; assay: cells; conditions: Homo sapiens, JeKo-1, 48 h

SMILES | IC50 [µM]
O=C(N/N=C/C=C/c1ccc([N+](=O)[O-])o1)c1ccc(C(=O)N/N=C/C=C/c2ccc([N+](=O)[O-])o2)c(O)c1O [CBU-049, (N′1E,N′4E)-2,3-dihydroxy-N′1,N′4-bis((E)-3-(5-nitrofuran-2-yl)allylidene)terephthalo hydrazide] | 1.5
CC1(C)C(N(O)C(=O)Nc2ccc(C(F)(F)F)cc2)N(c2ccc(C(F)(F)F)cc2)C(=O)N1CC(=O)NN (centres unmarked) [CBU-007, 1-(1-(2-hydrazinyl-2-oxoethyl)-5,5-dimethyl-2-oxo-3-(4-(tri-fluoromethyl)phenyl)imi-dazolidin-4-yl)-1-hydroxy-3-(4-(trifluoromethyl)phenyl)urea] | 30

same assay, conditions: Homo sapiens, JeKo-1, 48 h, JEKO-1 cells, incubated 2 days, MTT, four parameter logistic fit

SMILES | IC50 [µM]
O=C(N/N=C/C=C/c1ccc([N+](=O)[O-])o1)c1ccccc1O [CBU-025, (E)-2-hydroxy-N′-((E)-3-(5-nitrofuran-2-yl)allylidene)benzohydrazide] | 6.5
O=C(N/N=C/C=C/c1ccc([N+](=O)[O-])o1)c1cnc2c(C(F)(F)F)cccc2c1O [CBU-040, (E)-4-hydroxy-N′((E)-3-(5-nitrofuran-2-yl)allylidene)-8-(trifluoromethyl)quinoline-3-carbohydrazide] | 10
COc1ccc(O)c(C(=O)N/N=C/C=C/c2ccc([N+](=O)[O-])o2)c1 [CBU-046, (E)-2-hydroxy-5-methoxy-N′-((E)-3-(5-nitrofuran-2-yl)allylidene)benzohydrazide] | 10
CC1(C)C(N(O)C(=O)Nc2ccc(Cl)cc2)N(c2ccc(Cl)cc2)C(=O)N1CC(=O)N/N=C/C=C/c1ccco1 (centres unmarked) [CBU-023] | 15
O=C(N/N=C/C=C/c1ccc([N+](=O)[O-])o1)c1cccnc1 [CBU-016, (E)-N′-((E)-3-(5-nitrofuran-2-yl)allylidene)nicotinonhydrazide] | 7
O=C(N/N=C/C=C/c1ccc([N+](=O)[O-])o1)c1ccc(O)cc1 [CBU-027, (E)-4-hydroxy-N′-((E)-3-(5-nitrofuran-2-yl)allylidene)benzohydrazide] | 7.5
CC1(C)C(N(O)C(=O)Nc2ccc(C(F)(F)F)cc2)N(c2ccc(C(F)(F)F)cc2)C(=O)N1CC(=O)N/N=C/C=C/c1ccc([N+](=O)[O-])o1 (centres unmarked) [CBU-008] | 2.5
O=C(N/N=C/C=C/c1ccc([N+](=O)[O-])o1)c1ccncc1 [CBU-033, (E)-N′-((E)-3-(5-nitrofuran-2-yl)allylidene)isonicotino-hydrazide] | 6
C[N+](C)(C)CC(=O)N/N=C/C=C/c1ccc([N+](=O)[O-])o1 [CBU-019] | 3.5
CC1(C)C(N(O)C(=O)Nc2ccc(Cl)cc2)N(c2ccc(Cl)cc2)C(=O)N1CC(=O)N/N=C/c1ccc([N+](=O)[O-])o1 (centres unmarked) [CBU-024] | 7
O=C(N/N=C/C=C/c1ccc([N+](=O)[O-])o1)c1cnc2cc(C(F)(F)F)ccc2c1O [CBU-039, (E)-4-hydroxy-N′-((E)-3-(5-nitrofuran-2-yl)allylidene)-7-(trifluoromethyl)quinoline-3-carbohydrazide] | 15
O=C(N/N=C/C=C/c1ccc([N+](=O)[O-])o1)c1ccccc1 [CBU-015, (E)-N′-((E)-3-(5-nitrofuran-2-yl)allylidene)benzohydrazide] | 8
O=C(/C=C/c1ccc([N+](=O)[O-])o1)NNC(=O)c1cc2ccccc2cc1O [CBU-062, (E)-3-hydroxy-N′-(3-(5-nitrofuran-2-yl)acryloyl)-2-naphthohydrazide] | 2.5
CC1(C)C(N(O)C(=O)Nc2ccc(Cl)cc2)N(c2ccc(C(F)(F)F)cc2)C(=O)N1CC(=O)N/N=C/C=C/c1ccc([N+](=O)[O-])o1 (centres unmarked) [CBU-013] | 3
CC1(C)C(N(O)C(=S)Nc2ccc(Cl)cc2)N(c2ccc(Cl)cc2)C(=S)N1CC(=O)N/N=C/C=C/c1ccc([N+](=O)[O-])o1 (centres unmarked) [CBU-073] | 3
O=C(N/N=C/C=C/c1ccc([N+](=O)[O-])o1)c1nc(O)c2ccccc2c1O [CBU-036, (E)-1,4-dihydroxy-N′-((E)-3-(5-nitrofuran-2-yl)allylidene)isoquinoline-3-carbohydrazide] | 9

SMILES | IC50 [µM]
O=C(N/N=C/C=C/c1ccccc1[N+](=O)[O-])c1cc2ccccc2cc1O [CBU-055, (E)-3-hydroxy-N′-((E)-3-(2-nitrophenyl)allylidene)-2-naphthohydrazide] | 6
CCNC(=S)N/N=C/C=C/c1ccc([N+](=O)[O-])o1 [CBU-017, (E)-N-ethyl-2-((E)-3-(5-nitrofuran-2-yl)allylidene)hydrazine-carbothioamide] | 15
Cc1cccc(C(=O)N/N=C/C=C/c2ccc([N+](=O)[O-])o2)c1O [CBU-038, (E)-2-hydroxy-3-methyl-N′-((E)-3-(5-nitrofuran-2-yl)allylidene)benzohydrazide] | 9
CC1(C)C(N(O)C(=O)Nc2ccc(C(F)(F)F)cc2)N(c2ccc(Cl)cc2)C(=O)N1CC(=O)N/N=C/C=C/c1ccc([N+](=O)[O-])o1 (centres unmarked) [CBU-014] | 3
COc1ccc(C(=O)N/N=C/C=C/c2ccc([N+](=O)[O-])o2)c(O)c1 [CBU-043, (E)-2-hydroxy-4-methoxy-N′-((E)-3-(5-nitrofuran-2-yl)allylidene)benzohydrazide] | 30
CN(C)c1ccc(/C=C/C=N/NC(=O)c2cc3ccccc3cc2O)cc1 [CBU-054, (E)-N′-((E)-3-(4-(dimethylamino)phenyl)allylidene)-3-hydroxy-2-naphthohydrazide] | 15
O=C(N/N=C/C=C/c1ccc([N+](=O)[O-])o1)c1cccs1 [CBU-034, (E)-N′-((E)-3-(5-nitrofuran-2-yl)allylidene)thiophene-2-carbohydrazide] | 20
O=C(N/N=C/C=C/c1ccc([N+](=O)[O-])o1)c1cc(Br)ccc1O [CBU-041, (E)-5-bromo-2-hydroxy-N′-((E)-3-(5-nitrofuran-2-yl)allylidene)benzohydrazide] | 10
CC(C)(C)OC(=O)N/N=C/C=C/c1ccc([N+](=O)[O-])o1 [CBU-018, (E)-tert-butyl 2-((E)-3-(5-nitrofuran-2-yl)allylidene)hydrazine-carboxylate] | 18
O=C(N/N=C/C=C/c1ccc([N+](=O)[O-])o1)c1ccc(O)cc1O [CBU-042, (E)-2,4-dihydroxy-N′-((E)-3-(5-nitrofuran-2-yl)allylidene)benzohydrazide] | 40
O=C(N/N=C/C=C/c1ccccc1)c1cc2ccccc2cc1O [CBU-051, (E)-3-hydroxy-N′-((E)-3-phenylallylidene)-2-naphthohydrazide] | 10
Cc1ccc(O)c(C(=O)N/N=C/C=C/c2ccc([N+](=O)[O-])o2)c1 [CBU-045, (E)-2-hydroxy-5-methyl-N′-((E)-3-(5-nitrofuran-2-yl)allylidene)benzohydrazide] | 6
O=C(N/N=C/C=C/c1ccc([N+](=O)[O-])o1)c1cccc(O)c1 [CBU-021, (E)-3-hydroxy-N′-((E)-3-(5-nitrofuran-2-yl)allylidene)benzohydrazide] | 8
O=C(N/N=C/C=C/c1ccc([N+](=O)[O-])cc1)c1cc2ccccc2cc1O [CBU-061, (E)-3-hydroxy-N′-((E)-3-(4-nitrophenyl)allylidene)-2-naphthohydrazide] | 5
N=C(N)N/N=C/C=C/c1ccc([N+](=O)[O-])o1 [CBU-020, (E)-2-((E)-3-(5-nitrofuran-2-yl)allylidene)hydrazine-carboximidamide hydrochloride] | 4
O=C(CNC(=O)Nc1ccc(Cl)cc1)N/N=C/C=C/c1ccc([N+](=O)[O-])o1 [CBU-022, 1-(4-chlorophenyl)-3-(2-((E)-2-((E)-3-(5-nitrofuran-2-yl)allylidene)hydrazinyl)-2-oxoethyl)urea] | 6
